From a melting point compilation (Tetko et al.)

Row | Structure (SMILES) | melting point [°C]
1 | COc1cccc(C(=O)NN2C(=O)CSC2=S)c1 | 156 to 158
2 | O=C1Nc2c(F)cc(Cl)cc2C1=O | 219 to 221
3 | O=C1c2ccccc2C(=O)N1CCCS(=O)(=O)Cl | 59 to 61
4 | Cn1nnc2cc(CCl)ccc21 | 83 to 85
5 | O=C(O)Cc1ccc(F)c(Br)c1 | 64 to 66
6 | COC(=O)C(N)c1ccc2ccccc2c1 (centres undefined) | 56 to 58
7 | CCOC(=O)c1cc(C(=O)O)cc([N+](=O)[O-])c1 | 178 to 180
8 | O=C1NCCN2CCCC12 (centres undefined) | 73 to 75
9 | COc1cc(CC#N)c(Br)cc1OC(F)F | 80 to 82
10 | CN(Cc1ccccc1)C(N)=O | 134 to 136
11 | O=C(NC1CCCCC1)OCC(F)(F)F | 78 to 82
12 | Cc1cc(C=CC(=O)O)cnc1N | 229 to 231
13 | OCc1cnn(Cc2ccc(Br)cc2)c1 | 72 to 74
14 | O=C1C=CC(=O)N1c1cccc(Cl)c1 | 86 to 88
15 | C=CCn1c(S)nnc1-c1ccoc1C | 293 to 295
16 | O=C(O)COc1ccc(Cl)c2cccnc12 | 209 to 211
17 | CCCCNc1ccc(S(=O)(=O)N2CCCC2)cc1N | 208 to 210
18 | Nc1ccc2[nH]c(-c3ccco3)nc2c1 | 230 to 232
19 | O=C1CCSc2ccc(C(=O)O)cc2N1 | 262 to 264
20 | CNc1ccc(C#N)cc1F | 76 to 78
21 | O=C(O)c1cnc(-c2ccncc2)s1 | 307 to 309
22 | CC(C)OC(=O)N1CCC(C(=O)O)(C(F)(F)F)C1 (centres undefined) | 98 to 100
23 | NNC(=O)CNc1ccccc1 | 126 to 128
24 | COc1ccccc1C(C)CC(=O)O (centres undefined) | 50 to 52

Row | Structure (SMILES) | melting point [°C]
25 | O=C1COc2ccc(C(=O)CBr)cc2N1 | 190 to 192
26 | N#Cc1ccc(NCC(=O)O)cc1 | 225 to 227
27 | CC(C)(C)OC(=O)N1CC(O)(c2ccc(F)c(F)c2)C1 | 69 to 71
28 | Cc1n[nH]c(-c2ccccc2I)n1 | 154 to 156
29 | Cc1nc(N)oc1C | 64 to 66
30 | COc1ccc(C=O)cc1Cl | 56 to 58
31 | Nc1ccc(-c2csc(N3CCOCC3)n2)cc1 | 174 to 176
32 | CS(=O)(=O)c1ccc(C(=O)O)cc1[N+](=O)[O-] | 274 to 276
33 | O=C1Nc2c(F)ccc(Cl)c2C1=O | 279 to 281
34 | NNC(=O)c1csc(N2CCOCC2)n1 | 168 to 170
35 | O=C(O)CNC(=O)C1CCCC1 | 109 to 111
36 | O=C(O)CC1CCCN1Cc1nc2ccccc2c(=O)[nH]1 (centres undefined) | 197 to 199
37 | O=C(O)c1cc2cc(Cl)c(Cl)cc2[nH]1 | 321 to 323
38 | O=C(O)C1Cc2nc[nH]c2C(c2ccccc2)N1 (centres undefined) | 209 to 211
39 | Nc1cc(N2CCCC2=O)ccc1F | 106 to 108
40 | O=C(O)Cc1ccc(NC(=O)C2CCCC2)cc1 | 173 to 175
41 | Cc1nc(C2CCCC2)sc1C(=O)O | 185 to 187
42 | CN(c1ccc(O)cc1)S(=O)(=O)c1ccccc1 | 131 to 133
43 | CC(O)c1nc2ccccc2n1C(F)F (centres undefined) | 96 to 98
44 | CC(CS(C)(=O)=O)C(=O)O (centres undefined) | 125 to 127
45 | CCS(=O)(=O)NCCc1ccc(S(N)(=O)=O)s1 | 121 to 123
46 | O=C(O)c1nn(Cc2ccccc2)c(=O)c2ccccc12 | 199 to 201
47 | COc1ccc(N)cc1NC(=O)c1ccc(Cl)cc1F | 140 to 142
48 | Nc1nnc(CCCc2ccccc2)o1 | 165 to 167

Row | Structure (SMILES) | melting point [°C]
49 | Cc1cc(C)n(-c2cncc(Cl)n2)n1 | 88 to 90
50 | CC(C)N(C)S(=O)(=O)c1cccc(C(=O)O)c1 | 168 to 170
51 | CC(O)(CN)c1cccs1 (centres undefined) | 55 to 57
52 | CSCCC(NS(=O)(=O)c1ccc2c(c1)OCCO2)C(=O)O (centres undefined) | 93 to 96
53 | O=C1CCOc2c(Br)cccc21 | 62 to 64
54 | Cc1ccc(NC(=O)OCC(F)(F)F)s1 | 73 to 75
55 | CCOC(=O)c1cccnc1S | 99 to 101
56 | Cc1cc(C)c2c(c1)NCCC2 | 34 to 36
57 | O=C(O)c1ccc(Cl)c(S(=O)(=O)N(Cc2ccccc2)c2cccc(C(F)(F)F)c2)c1 | 201 to 203
58 | Nc1cc(Cl)ccc1S(N)(=O)=O | 142 to 144
59 | CCC(=O)NNC(=O)C(C)Cl (centres undefined) | 157 to 159
60 | BrCc1cc(Br)c2c(c1)OCO2 | 123 to 125
61 | CCCOc1ccc(C#N)cc1OC | 90 to 92
62 | COc1nc(C)cc(Cl)n1 | 59 to 61
63 | O=C(O)CC1CCOCC1 | 59 to 61
64 | CC1CC(C)CN(c2nnc(S)n2Cc2ccco2)C1 (centres undefined) | 119 to 121
65 | NS(=O)(=O)c1ccc(C(=O)O)nc1 | 194 to 196
66 | Cc1nc(Cl)cc(-c2ccncc2)n1 | 111 to 113
67 | Cc1nc2cc(O)nn2c(C)c1CCC(=O)O | 302 to 304
68 | Cc1ccc(S(=O)(=O)N2CCOCC2)cc1NC(=O)CCl | 76 to 78
69 | CCNCC(=O)Nc1ccc(OC)cc1 | 88 to 90
70 | CC(C)(C)c1ccc(C(=O)O)cc1[N+](=O)[O-] | 156 to 158
71 | O=C(O)C(F)(F)c1cccc(Cl)c1 | 75 to 77
72 | O=C(O)CNC(=O)N1CCc2ccccc2C1 | 159 to 161

Row | Structure (SMILES) | melting point [°C]
73 | N#Cc1cccc(CN2C(=O)CCc3ccccc32)c1 | 119 to 121
74 | CN1CCN(S(=O)(=O)c2ccc(Cl)c(N)c2)CC1 | 103 to 107
75 | O=C(c1ccc(S(=O)(=O)Cl)cc1F)N1CCCC1 | 79 to 81
76 | O=C(O)c1cc(-c2ccc(Cl)cc2)nc2ccccc12 | 244 to 246
77 | Sc1nnc(-c2ccccc2)n1Cc1ccc2c(c1)OCO2 | 118 to 120
78 | CN1CCc2ccc(N)cc2C1=O | 127 to 129
79 | Cn1ccnc1C(=O)c1ccccc1Cl | 99 to 101
80 | NNS(=O)(=O)c1ccc(Br)cc1 | 225 to 227
81 | COC(=O)Nc1ccc(O)cc1 | 115 to 117
82 | CCn1c(SCC(=O)O)nnc1-c1cccc(C)c1 | 281 to 283
83 | NCCc1nc2ccccc2[nH]1 | 215 to 230
84 | COC(=O)c1c(C)nn(C)c1Cl | 36 to 38
85 | CC(=O)c1c(C)oc2nc(Br)nn12 | 118 to 120
86 | O=S(=O)(F)CC1CCOCC1 | 53 to 55
87 | CNC(CCO)c1ccccc1 (centres undefined) | 56 to 58
88 | C=CCN1C(=O)C(=O)c2ccccc21 | 108 to 110
89 | O=Cc1cnn(-c2ccc(Br)cc2)c1 | 124 to 126
90 | N#Cc1cccnc1NCc1ccccc1Cl | 111 to 113
91 | NCCS(=O)(=O)c1ccc(Br)cc1 | 87 to 89
92 | COc1cc(C(=O)O)ccc1OCC(C)C | 145 to 147
93 | Cc1c(C(=O)O)oc2c(F)cc(F)cc12 | 339 to 341
94 | O=C(CCc1ccccc1)c1ccccc1 | 69 to 71
95 | CN1C(=O)CCc2cc(Br)ccc21 | 79 to 81
96 | COc1ccc(C(=O)NC2CCS(=O)(=O)C2)cc1N (centres undefined) | 145 to 147

Row | Structure (SMILES) | melting point [°C]
97 | CC(C)C(=O)N(C)Cc1ccc(C(=O)O)cc1 | 139 to 141
98 | Cc1cc(C(=O)O)c2c(C(C)C)noc2n1 | 202 to 204
99 | Cc1[nH]c(=O)sc1S(=O)(=O)N1CCCC1C(=O)O (centres undefined) | 247 to 249
100 | COCCCn1cc(C(=O)c2cc(F)ccc2O)cc(C#N)c1=O | 126 to 128
101 | O=C(O)CCNc1ccc(C(F)(F)F)cc1[N+](=O)[O-] | 130 to 134
102 | NC(CC(=O)O)c1cc(Cl)cc(Cl)c1 (centres undefined) | 205 to 207
103 | CC(C)(C)OC(=O)N1CC2CNCC2C1 (centres undefined) | 29 to 31
104 | Sc1nc(-c2cccnc2)no1 | 179 to 181
105 | O=C(O)c1cccc(N2CCCC2=O)c1 | 195 to 208
106 | O=C(O)c1csc(Br)c1 | 137 to 139
107 | COC(=O)CNc1ccncc1[N+](=O)[O-] | 104 to 106
108 | CN1CCN(C(=O)c2ccc(N)cc2)CC1 | 135 to 137
109 | CCN(Cc1ccccc1)S(N)(=O)=O | 79 to 81
110 | O=[N+]([O-])c1cccc(-c2cn[nH]c2)c1 | 154 to 156
111 | CCCS(=O)(=O)Nc1cccc(N)c1 | 63 to 65
112 | CC1(C)CCCC(C)(C)N1O | 36 to 38
113 | COc1ccccc1C(=O)NCC(=O)O | 69 to 71
114 | Oc1cccc(-n2cnnn2)c1 | 174 to 176
115 | Cc1c(C(=O)O)cnn1C1CCS(=O)(=O)C1 (centres undefined) | 249 to 251
116 | COc1ccc(CCCC(=O)O)c(OC)c1 | 46 to 48
117 | OCCCOc1ccc(Br)cc1 | 34 to 36
118 | Cc1ncc(Br)c(N)n1 | 109 to 111
119 | O=Cc1cnc2ccc(Br)cn12 | 162 to 164
120 | O=C(O)c1cc(-c2ccc(Cl)s2)[nH]n1 | 231 to 233

Row | Structure (SMILES) | melting point [°C]
121 | O=c1ccc(-n2ccnc2)n[nH]1 | 251 to 253
122 | Cc1c(C(=O)O)oc2c(Br)cc(Cl)cc12 | 279 to 281
123 | NC(=O)CN1CCC(N)CC1 | 74 to 76
124 | Sc1nnnn1CC1CCCO1 (centres undefined) | 28 to 30
125 | S=c1[nH]nnn1-c1ccc(Br)cc1 | 162 to 164
126 | CCCNC(=O)c1cccnc1Cl | 63 to 65
127 | O=[N+]([O-])c1ccc(OCc2ccccc2)cc1 | 92 to 94
128 | Cc1ccc(O)c(C(=O)Nc2ccncc2)c1 | 249 to 251
129 | CCN(CC)C1=NC(=O)C(CC(=O)Nc2cccc(C(=O)O)c2)S1 (centres undefined) | 236 to 238
130 | O=C1CCc2cc(C(=O)CCl)c(F)cc2N1 | 257 to 259
131 | Nc1cc(Cl)c(NC(=O)c2ccsc2)c(Cl)c1 | 206 to 208
132 | COc1ccc(C=CC(=O)O)cc1S(=O)(=O)N1CCOCC1 | 238 to 240
133 | CCc1ccc(C(=O)O)s1 | 60 to 62
134 | Cc1cnc2c(c1)NC(=O)CO2 | 259 to 261
135 | N#Cc1ccc(Cl)cc1[N+](=O)[O-] | 95 to 100
136 | Cc1cc(Br)c(C(=O)O)cn1 | 119 to 121
137 | O=C(O)C(Oc1ccc(Cl)c(Cl)c1)c1ccccc1 (centres undefined) | 59 to 61
138 | Nc1ccc(S(=O)(=O)NC2CC2)cc1 | 145 to 147
139 | COC(=O)c1cncc(C(=O)O)c1 | 225 to 227
140 | COc1cc(N)ncc1Br | 136 to 138
141 | Nc1nc(-c2ccc([N+](=O)[O-])cc2)n[nH]1 | 278 to 280
142 | NC(=O)CCNc1cc(Cl)ncn1 | 165 to 167
143 | Cc1cc(C(=O)O)cc(C)c1OCC(=O)N1CCCCC1 | 175 to 177
144 | O=C(NC1CC1)c1cccc(O)c1 | 157 to 159
